Reference: article PMC6175577, “BRCT domains of the DNA damage checkpoint proteins TOPBP1/Rad4 display distinct specificities for phosphopeptide ligands” (eLife, 2018)
Like-named read-outs stand apart in the source and are kept apart here. Blank lines part the entries; values can stand above or below the compound they belong to. Where a SMILES comes first, the peptide text is derived from it. [ ]: non-standard residue; d: D form. The star is where a group is joined. 5FAM = O=C1OC2(c3ccc(O)cc3Oc3cc(O)ccc32)c2ccc(C(=O)*)cc21; pT = C[C@@H](OP(=O)(O)O)[C@H](N)C(=O)O; pS = N[C@@H](COP(=O)(O)O)C(=O)O

Key:
[1] = molecular target: T1, SpNbs1 (Schizosaccharomyces pombe, UniProt O43070); assay: Fluorescence polarisation titration, SpNbs1; format: binding, S. pombe; details: FP, fluorescein-peptide 200 nM, HEPES pH 7.5, room temperature, one-site fit, 4 replicates
T1 construct: made in house; host or cells: E. coli BL21(DE3)
T1 sequence (O43070 1-613): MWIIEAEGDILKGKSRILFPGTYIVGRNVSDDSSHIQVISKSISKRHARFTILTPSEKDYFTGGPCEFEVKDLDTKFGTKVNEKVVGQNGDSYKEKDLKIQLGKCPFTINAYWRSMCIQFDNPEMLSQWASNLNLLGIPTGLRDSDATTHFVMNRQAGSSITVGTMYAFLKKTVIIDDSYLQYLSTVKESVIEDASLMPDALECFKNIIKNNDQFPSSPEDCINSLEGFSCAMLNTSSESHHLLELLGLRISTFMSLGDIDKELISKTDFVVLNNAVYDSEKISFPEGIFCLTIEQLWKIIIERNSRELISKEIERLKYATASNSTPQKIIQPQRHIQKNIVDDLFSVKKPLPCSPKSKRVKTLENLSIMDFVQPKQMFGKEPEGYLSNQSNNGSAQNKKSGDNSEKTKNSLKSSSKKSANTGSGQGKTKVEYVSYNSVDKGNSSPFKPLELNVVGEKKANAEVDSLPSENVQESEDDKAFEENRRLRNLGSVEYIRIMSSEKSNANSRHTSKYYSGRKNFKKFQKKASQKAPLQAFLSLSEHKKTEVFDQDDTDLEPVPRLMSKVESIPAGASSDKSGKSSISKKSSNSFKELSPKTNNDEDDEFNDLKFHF
Description: (§1) Fluorescein-labelled peptides (Peptide Protein Research Ltd, Fareham, UK) at a concentration of 200 nM, were incubated at room temperature with increasing concentrations of recombinant protein in 25 mM HEPES pH 7.5, 150 mM NaCl, 1 mM EDTA, 0.25 mM TCEP, 0.02% (v/v) Tween-20. Four parallel replicates of each titration were dispensed into a black 96-well polypropylene plate (VWR, Lutterworth, UK) for measurement. Fluorescence polarisation was measured in a CLARIOstar multimode microplate reader (BMG Labtech, Aylesbury, UK). Binding curves represent the mean of 4 independent experiments, with error bars indicating one standard deviation. All data were fitted by non-linear regression, to a one site-specific binding model in Prism seven for Mac OS X (v 7.0d, GraphPad Software) in order to calculate the reported dissociation constants (Kd). Low-affinity non-specific responses for which a binding curve could not be determined are marked as ND.

[2] = molecular target: T2, Rad4-BRCT1,2 WT (Schizosaccharomyces pombe, UniProt P32372); assay: Fluorescence polarisation titration, Rad4-BRCT1,2 wild-type; details: FP, fluorescein-peptide 200 nM, HEPES pH 7.5, room temperature, one-site fit, 4 replicates; ND = low-affinity non-specific response, no binding curve
T2 construct: made in house; host or cells: E. coli BL21(DE3)
T2 sequence (P32372 1-186 limits assumed): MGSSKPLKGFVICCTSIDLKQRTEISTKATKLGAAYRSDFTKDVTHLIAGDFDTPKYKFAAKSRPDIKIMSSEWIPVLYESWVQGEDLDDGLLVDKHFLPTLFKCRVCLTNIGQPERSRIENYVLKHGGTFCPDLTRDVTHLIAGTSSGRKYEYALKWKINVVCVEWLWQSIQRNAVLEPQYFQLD
Description: as §1

[3] = molecular target: T3, Rad4-BRCT3,4 (Schizosaccharomyces pombe, UniProt P32372); assay: Fluorescence polarisation titration, Rad4-BRCT3,4; details: FP, fluorescein-peptide 200 nM, HEPES pH 7.5, room temperature; ND = low-affinity non-specific response, no binding curve
T3 construct: made in house; host or cells: E. coli BL21(DE3)
T3 sequence (P32372 291-494 limits assumed): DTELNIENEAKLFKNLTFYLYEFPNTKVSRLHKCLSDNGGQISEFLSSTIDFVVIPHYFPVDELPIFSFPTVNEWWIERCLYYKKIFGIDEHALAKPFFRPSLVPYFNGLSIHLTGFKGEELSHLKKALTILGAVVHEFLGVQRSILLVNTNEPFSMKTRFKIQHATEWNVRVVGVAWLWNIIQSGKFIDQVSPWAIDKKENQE
Description: as §1

[4] = molecular target: T4, TOPBP1-BRCT7,8 (Homo sapiens, UniProt Q92547); assay: Fluorescence polarisation titration, TOPBP1-BRCT7,8; format: binding
T4 construct: made in house; host or cells: E. coli BL21(DE3)
T4 sequence (Q92547 1264-1493 limits assumed): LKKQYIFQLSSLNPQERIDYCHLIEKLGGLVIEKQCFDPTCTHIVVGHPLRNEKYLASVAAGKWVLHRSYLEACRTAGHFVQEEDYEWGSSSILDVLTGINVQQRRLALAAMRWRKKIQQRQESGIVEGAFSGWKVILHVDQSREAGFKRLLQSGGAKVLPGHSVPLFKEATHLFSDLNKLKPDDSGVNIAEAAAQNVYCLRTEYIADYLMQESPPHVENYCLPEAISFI
Description: as §1

[5] = molecular target: T5, TOPBP1-BRCT0,1,2 WT (Homo sapiens, UniProt Q92547); assay: Fluorescence polarisation titration, TOPBP1-BRCT0,1,2 wild-type; format: binding
T5 construct: made in house; host or cells: E. coli BL21(DE3)
T5 sequence (Q92547 1-290 limits assumed): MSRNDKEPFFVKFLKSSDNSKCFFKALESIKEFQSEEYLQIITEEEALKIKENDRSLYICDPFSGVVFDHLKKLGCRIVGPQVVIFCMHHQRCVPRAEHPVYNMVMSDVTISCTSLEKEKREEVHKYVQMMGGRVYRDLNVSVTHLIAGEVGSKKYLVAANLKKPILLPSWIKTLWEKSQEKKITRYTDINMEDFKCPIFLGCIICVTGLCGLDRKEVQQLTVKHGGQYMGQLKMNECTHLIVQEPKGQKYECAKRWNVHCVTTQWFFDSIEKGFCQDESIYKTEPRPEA
Description: as §1

[6] = molecular target: T6, TOPBP1-BRCT0,1,2 K155E (Homo sapiens, UniProt Q92547, K155E); assay: Fluorescence polarisation titration, TOPBP1-BRCT0,1,2 K155E (BRCT1 mutant); format: binding
T6 construct: made in house; host or cells: E. coli BL21(DE3)
T6 sequence (Q92547 1-290 K155E limits assumed): as the sequence (Q92547 1-290 limits assumed) above, with K155E counted along it
Description: as §1

[7] = molecular target: T7, TOPBP1-BRCT0,1,2 K250E (Homo sapiens, UniProt Q92547, K250E); assay: Fluorescence polarisation titration, TOPBP1-BRCT0,1,2 K250E (BRCT2 mutant); format: binding; details: FP, fluorescein-peptide 200 nM, HEPES pH 7.5, room temperature, one-site fit, 4 replicates
T7 construct: made in house; host or cells: E. coli BL21(DE3)
T7 sequence (Q92547 1-290 K250E limits assumed): as the sequence (Q92547 1-290 limits assumed) above, with K250E counted along it
Description: as §1

[8] = molecular target: T8, TOPBP1-BRCT4,5 (Homo sapiens, UniProt Q92547); assay: Fluorescence polarisation titration, TOPBP1-BRCT4,5; format: binding; details: FP, fluorescein-peptide 200 nM, HEPES pH 7.5, room temperature, one-site fit, 4 replicates; ND = low-affinity non-specific response, no binding curve
T8 construct: made in house; host or cells: E. coli BL21(DE3)
T8 sequence (Q92547 549-746 limits assumed): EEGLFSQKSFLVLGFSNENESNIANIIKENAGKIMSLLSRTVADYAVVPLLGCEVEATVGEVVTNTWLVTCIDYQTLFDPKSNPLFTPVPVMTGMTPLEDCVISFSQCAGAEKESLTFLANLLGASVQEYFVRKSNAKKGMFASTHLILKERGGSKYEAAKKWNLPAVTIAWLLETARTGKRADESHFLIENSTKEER
Description: as §1

Kd [1]: sub-micromolar affinity | Kd [2]: no binding was observed | Kd [3]: no binding was observed
SMILES: CC(C)[C@H](NC(=O)CNC(=O)[C@H](Cc1ccc(O)cc1)NC(=O)CNC(=O)c1ccc2c(c1)C(=O)OC21c2ccc(O)cc2Oc2cc(O)ccc21)C(=O)N[C@@H](CCC(=O)O)C(=O)NCC(=O)N[C@@H](CC(=O)O)C(=O)N[C@@H](Cc1c[nH]cn1)C(=O)N[C@@H](CO)C(=O)N[C@@H](COP(=O)(O)O)C(=O)N[C@@H](CC(=O)O)C(=O)N[C@H](C(=O)N[C@@H](CCC(=O)O)C(=O)N[C@@H](CCC(=O)O)C(=O)N[C@@H](CCC(=O)O)C(=O)N[C@H](C(=O)N[C@H](C(=O)N[C@@H](CO)C(=O)O)C(C)C)C(C)C)[C@@H](C)OP(=O)(O)O [Mdb1 pS216, pT218] (5FAM-GYGVEGDHS[pS]D[pT]EEEVVS-OH)

SMILES: CC[C@H](C)[C@H](NC(=O)[C@H](CO)NC(=O)[C@H](CCC(=O)O)NC(=O)[C@H](CC(=O)O)NC(=O)[C@H](CCC(=O)O)NC(=O)CNC(=O)[C@H](Cc1ccc(O)cc1)NC(=O)CNC(=O)c1ccc2c(c1)C(=O)OC21c2ccc(O)cc2Oc2cc(O)ccc21)C(=O)N[C@@H](Cc1ccc(O)cc1)C(=O)N[C@@H](Cc1ccccc1)C(=O)N[C@H](C(=O)N1CCC[C@H]1C(=O)N[C@@H](CCC(=O)O)C(=O)N[C@@H](CC(C)C)C(=O)N[C@@H](Cc1ccc(O)cc1)C(=O)N[C@@H](CC(=O)O)C(=O)N1CCC[C@H]1C(=O)N[C@@H](CCC(=O)O)C(=O)O)[C@@H](C)OP(=O)(O)O [FANCJ pT1133, reference compound] (5FAM-GYGEDESIYF[pT]PELYDPE-OH)
Kd [4]: 140 ± 10 nM

Kd ([5]; read-out: Kd): 940 ± 60 nM | Kd ([6]; read-out: Kd): 1000 ± 60 nM
SMILES: CC[C@H](C)[C@H](NC(=O)[C@H](CCC(N)=O)NC(=O)[C@H](CCCCN)NC(=O)[C@H](Cc1c[nH]cn1)NC(=O)[C@@H](NC(=O)[C@@H]1CCCN1C(=O)[C@@H](NC(=O)[C@H](CCC(=O)O)NC(=O)[C@H](C)NC(=O)[C@@H](NC(=O)[C@H](CO)NC(=O)[C@H](CCCCN)NC(=O)[C@@H](NC(=O)[C@H](CC(C)C)NC(=O)CNC(=O)[C@H](Cc1ccc(O)cc1)NC(=O)CNC(=O)c1ccc2c(c1)C(=O)OC21c2ccc(O)cc2Oc2cc(O)ccc21)[C@@H](C)O)C(C)C)[C@@H](C)OP(=O)(O)O)C(C)C)C(=O)N[C@@H](CO)C(=O)O [Treslin pT969] (5FAM-GYGLTKSVAE[pT]PVHKQIS-OH)

Kd ([5]; FP, fluorescein-peptide 200 nM, HEPES pH 7.5, room temperature, one-site fit, 4 replicates): sub-micromolar affinity | Kd ([5]; FP, fluorescein-peptide 200 nM, HEPES pH 7.5, room temperature, one-site fit, 4 replicates, read-out: Kd): < 200 nM | Fold tighter binding than RAD9-pS387 ([5]; RHNO1-pT202 versus RAD9-pS387, binding to TOPBP1 BRCT1): ~ 10 fold | Kd ([6]; FP, fluorescein-peptide 200 nM, HEPES pH 7.5, room temperature, one-site fit, 4 replicates, ND = low-affinity non-specific response, no binding curve): no binding was observed | Kd [7]: comparable affinity to the wild-type | Kd ([7]; read-out: Kd): < 200 nM | Kd [8]: did not show any measurable binding | Kd ([4]; FP, fluorescein-peptide 200 nM, HEPES pH 7.5, room temperature, one-site fit, ND = low-affinity non-specific response, no binding curve): did not show any measurable binding
SMILES: CC[C@H](C)[C@H](NC(=O)CNC(=O)[C@H](Cc1ccc(O)cc1)NC(=O)[C@H](CCCCN)NC(=O)[C@H](CC(=O)O)NC(=O)[C@H](CCC(=O)O)NC(=O)[C@@H]1CCCN1C(=O)[C@@H](NC(=O)[C@H](CC(=O)O)NC(=O)[C@H](CCCCN)NC(=O)[C@@H](NC(=O)[C@H](CC(C)C)NC(=O)[C@@H](NC(=O)[C@@H]1CCCN1C(=O)CNC(=O)CNC(=O)[C@H](Cc1ccc(O)cc1)NC(=O)CN)C(C)C)C(C)C)[C@@H](C)OP(=O)(O)O)C(=O)O [RHNO1 pT202] (H-GYGGPVLVKD[pT]PEDKYGI-OH; N-terminus and C-terminus assumed)
